Tests used:
FDAS [1] = test: Discontinuous assay of FDAS; assay type: biochemical, Streptomyces cattleya; conditions: turnover at a fixed substrate concentration compared to the wild type
FDAS [2] = biological target: T1, FDAS (Streptantibioticus cattleyicolor, UniProt Q70GK9); test: Active site titration of FDAS; assay type: biochemical, Streptomyces cattleya
FDAS (native, wild type) = FDAS (native, wild type) (Streptantibioticus cattleyicolor, UniProt Q70GK9); test: Isothermal titration calorimetry; assay type: binding
apo FDAS = apo FDAS (Streptantibioticus cattleyicolor, UniProt Q70GK9); test: ITC binding of ligands to apo FDAS; design: species or system Streptomyces cattleya; conditions: for Stoichiometry (N) / Ka (app) / S / ΔH: 25 °C; for Stoichiometry (N): 20mM sodium phosphate buffer (pH 7.8), apo FDAS; for Ka (app) / S / ΔH: pH 7.8, apo FDAS
[3] = biological target: FDAS pre-incubated with 5′-FDA (Streptantibioticus cattleyicolor, UniProt Q70GK9); conditions: 1mM L-methionine titrated into 0.08 mM FDA and 0.02 mM apo FDAS mixture
[4] = biological target: FDAS pre-incubated with adenosine (Streptantibioticus cattleyicolor, UniProt Q70GK9); conditions: 1mM L-methionine titrated into 0.024 mM Adenosine and 0.02 mM apo FDAS mixture
FDAS [5] = biological target: T1, FDAS; test: Reactivity of SAH / homocysteine with FDAS; assay type: biochemical, Streptomyces cattleya
D16N mutation of FDAS = D16N mutation of FDAS (Streptantibioticus cattleyicolor, UniProt Q70GK9, D16N); test: ITC binding of SAM to D16N mutant; design: species or system Streptomyces cattleya
FDAS [6] = biological target: T1, FDAS; test: Discontinuous assay of FDAS; assay type: biochemical, Streptomyces cattleya; conditions: F^− 200mM

Compound | Kd (FDAS (native, wild type)) [nM] | Stoichiometry (N) (apo FDAS; ITC) | Ka (app) (apo FDAS; ITC) | S (apo FDAS; ITC) [kcal/mol] | ΔH (apo FDAS; ITC) [kcal/mol] | further results
5′-fluoro-5′-deoxy adenosine synthetase [FDAS] | – | – | – | – | – | % activity (FDAS [1]): 100%; burst size (active sites) (FDAS [2]; 50 μM SAM mixed with FDAS (2 μM), reaction initiated with 100 mM F^−): 0.1 µM; burst size (active sites) (FDAS [2]; 100 mM F^− pre-mixed with FDAS (2 μM), reaction initiated by 50 μM SAM): 0.6 µM
Nc1ncnc2c1ncn2[C@@H]1O[C@H](CO)C[C@H]1O [3′-deoxy-Ade, 3′-deoxyadenosine] | 2220 | – | – | – | – | –
Nc1ncnc2c1ncn2[C@@H]1O[C@H](CO)C[C@H]1O [3′-deoxy-Ade] | – | 0.37 ± 0.02 | 4.5 ± 0.6 ×10^5 M^−1 | -0.027 | -16 ± 0.9 | reduction of affinity relative to adenosine (apo FDAS; ITC): 3 fold
Nc1ncnc2c1ncn2[C@@H]1O[C@H](CO)[C@@H](O)[C@H]1O [Ade, adenosine] | 820 | 0.67 ± 0.01 | 12.2 ± 1.2 ×10^5 M^−1 | -0.04 | -20 ± 0.4 | –
Nc1ncnc2c1ncn2[C@@H]1O[C@H](CF)[C@@H](O)[C@H]1O [FDA, 5′-fluoro-5′-deoxy adenosine] | – | 1.16 ± 0.01 | 45.5 ± 6.5 ×10^5 M^−1 | -0.017 | -14 ± 0.1 | –
Nc1ncnc2c1ncn2[C@@H]1O[C@H](CF)[C@@H](O)[C@H]1O [FDA, 5′-fluoro-5′-deoxyadenosine (5′-FDA)] | 220 | – | – | – | – | –
CSCC[C@H](N)C(=O)O [L-methionine] | – | – | – | – | – | S [3]: -0.036 kcal/mol; ΔH [3]: -17 ± 2 kcal/mol; S [4]: -0.022 kcal/mol; Stoichiometry (N) [4]: 0.48 ± 0.11; ΔH [4]: -13 ± 3 kcal/mol
Nc1ncnc2c1ncn2[C@@H]1O[C@H](CSCC[C@H](N)C(=O)O)[C@@H](O)[C@H]1O [SAH, S-adenosyl homocysteine] | 33.1 | 0.72 ± 0.01 | 302 ± 74 ×10^5 M^−1 | -0.098 | -40 ± 0.5 | binding affinity relative to SAM (times more tightly bound) (apo FDAS; ITC): 40 times; effect on the reaction of SAM with F^− (FDAS [5]): inhibits; substrate of FDAS in the forward direction (FDAS [5]): not a substrate; 5′-ClDA production by the enzyme (FDAS [5]; incubation of Cl^− and SAH): does not produce 5′-ClDA
C[S+](CC[C@H](N)C(=O)[O-])C[C@H]1O[C@@H](n2cnc3c(N)ncnc32)[C@H](O)[C@@H]1O (stereo partly drawn) [SAM, S-adenosyl-L-methionine] | 1250 | 0.56 ± 0.01 | 8.0 ± 0.5 ×10^5 M^−1 | -0.058 | -25 ± 0.4 | SAM binding by ITC (D16N mutation of FDAS): does not bind with measurable affinity; SAM concentration above which FDAS displays substrate inhibition (FDAS [6]): greater than 20 μM
F [fluoride] | – | – | – | – | – | binding to the protein by ITC (apo FDAS; either as apo or SAH complex): too weak to measure
NC(CCS)C(=O)O (stereo not shown) [homocysteine] | – | – | – | – | – | SAH production by the enzyme (HPLC) (FDAS [5]; 5-ClDA and homocysteine): nor is any detected; SAH production by the enzyme (HPLC) (FDAS [5]; homocysteine and 5′-FDA, reverse reaction): no detectable production of SAH

Reference: PMC3326528 (Journal of the American Chemical Society, 2007)
